Values after ≈ are worked out from the molar mass of the structure shown.
What follows are compounds tested on Pseudomonas aeruginosa (assay: Antimicrobial activity against Pseudomonas aeruginosa 1611-09).
Format: functional

MIC90 | Compound
0.03 µg/mL (≈ 0.0412 µM) | C[C@H]1[C@H](NC(=O)/C(=N\OC(C)(C)C(=O)O)c2csc(N)n2)C(=O)N1C(=O)NS(=O)(=O)n1nc(-c2cc(=O)c(O)c[nH]2)n(C[C@@H](O)CO)c1=O

These compounds were tested on Pseudomonas aeruginosa (assay: Antimicrobial activity against Pseudomonas aeruginosa 1567-05).
Format: functional

MIC90 | Compound
0.06 µg/mL (≈ 0.0823 µM) | C[C@H]1[C@H](NC(=O)/C(=N\OC(C)(C)C(=O)O)c2csc(N)n2)C(=O)N1C(=O)NS(=O)(=O)n1nc(-c2cc(=O)c(O)c[nH]2)n(C[C@@H](O)CO)c1=O

What follows are compounds tested on Pseudomonas aeruginosa (assay: Antimicrobial activity against Pseudomonas aeruginosa 1564-05).
Format: functional

MIC90 | Compound
0.06 µg/mL (≈ 0.0823 µM) | C[C@H]1[C@H](NC(=O)/C(=N\OC(C)(C)C(=O)O)c2csc(N)n2)C(=O)N1C(=O)NS(=O)(=O)n1nc(-c2cc(=O)c(O)c[nH]2)n(C[C@@H](O)CO)c1=O

These compounds were tested on Pseudomonas aeruginosa (assay: Antimicrobial activity against Pseudomonas aeruginosa 1765-00).
Format: functional

MIC90 | Compound
0.5 µg/mL (≈ 0.686 µM) | C[C@H]1[C@H](NC(=O)/C(=N\OC(C)(C)C(=O)O)c2csc(N)n2)C(=O)N1C(=O)NS(=O)(=O)n1nc(-c2cc(=O)c(O)c[nH]2)n(C[C@@H](O)CO)c1=O

Each compound was assayed on Pseudomonas aeruginosa (assay: Antimicrobial activity against Pseudomonas aeruginosa PA-4993).
Format: functional

MIC90 | Compound
0.03 µg/mL (≈ 0.0412 µM) | C[C@H]1[C@H](NC(=O)/C(=N\OC(C)(C)C(=O)O)c2csc(N)n2)C(=O)N1C(=O)NS(=O)(=O)n1nc(-c2cc(=O)c(O)c[nH]2)n(C[C@@H](O)CO)c1=O

What follows are compounds tested on Pseudomonas aeruginosa (assay: Antimicrobial activity against Pseudomonas aeruginosa 1952-00).
Format: functional

MIC90 | Compound
0.125 µg/mL (≈ 0.172 µM) | C[C@H]1[C@H](NC(=O)/C(=N\OC(C)(C)C(=O)O)c2csc(N)n2)C(=O)N1C(=O)NS(=O)(=O)n1nc(-c2cc(=O)c(O)c[nH]2)n(C[C@@H](O)CO)c1=O

These compounds were tested on Pseudomonas aeruginosa (assay: Antimicrobial activity against Pseudomonas aeruginosa PA-4991).
Format: functional

MIC90 | Compound
0.125 µg/mL (≈ 0.172 µM) | C[C@H]1[C@H](NC(=O)/C(=N\OC(C)(C)C(=O)O)c2csc(N)n2)C(=O)N1C(=O)NS(=O)(=O)n1nc(-c2cc(=O)c(O)c[nH]2)n(C[C@@H](O)CO)c1=O

Each compound was assayed on Pseudomonas aeruginosa (assay: Antimicrobial activity against Pseudomonas aeruginosa 1513-08).
Format: functional

MIC90 | Compound
0.25 µg/mL (≈ 0.343 µM) | C[C@H]1[C@H](NC(=O)/C(=N\OC(C)(C)C(=O)O)c2csc(N)n2)C(=O)N1C(=O)NS(=O)(=O)n1nc(-c2cc(=O)c(O)c[nH]2)n(C[C@@H](O)CO)c1=O

What follows are compounds tested on Pseudomonas aeruginosa (assay: Antimicrobial activity against Pseudomonas aeruginosa 1767-00).
Format: functional

MIC90 | Compound
0.06 µg/mL (≈ 0.0823 µM) | C[C@H]1[C@H](NC(=O)/C(=N\OC(C)(C)C(=O)O)c2csc(N)n2)C(=O)N1C(=O)NS(=O)(=O)n1nc(-c2cc(=O)c(O)c[nH]2)n(C[C@@H](O)CO)c1=O

The compounds below were run on Pseudomonas aeruginosa (assay: Antimicrobial activity against Pseudomonas aeruginosa PA-4997).
Format: functional

MIC90 | Compound
0.125 µg/mL (≈ 0.172 µM) | C[C@H]1[C@H](NC(=O)/C(=N\OC(C)(C)C(=O)O)c2csc(N)n2)C(=O)N1C(=O)NS(=O)(=O)n1nc(-c2cc(=O)c(O)c[nH]2)n(C[C@@H](O)CO)c1=O

The compounds below were run on Pseudomonas aeruginosa (assay: Antimicrobial activity against Pseudomonas aeruginosa 1752-00).
Format: functional

MIC90 | Compound
0.125 µg/mL (≈ 0.172 µM) | C[C@H]1[C@H](NC(=O)/C(=N\OC(C)(C)C(=O)O)c2csc(N)n2)C(=O)N1C(=O)NS(=O)(=O)n1nc(-c2cc(=O)c(O)c[nH]2)n(C[C@@H](O)CO)c1=O

The compounds below were run on Pseudomonas aeruginosa (assay: Antimicrobial activity against Pseudomonas aeruginosa PA-4999).
Format: functional

MIC90 | Compound
0.125 µg/mL (≈ 0.172 µM) | C[C@H]1[C@H](NC(=O)/C(=N\OC(C)(C)C(=O)O)c2csc(N)n2)C(=O)N1C(=O)NS(=O)(=O)n1nc(-c2cc(=O)c(O)c[nH]2)n(C[C@@H](O)CO)c1=O

What follows are compounds tested on Pseudomonas aeruginosa (assay: Antimicrobial activity against Pseudomonas aeruginosa PA-75).
Format: functional

MIC90 | Compound
0.25 µg/mL (≈ 0.343 µM) | C[C@H]1[C@H](NC(=O)/C(=N\OC(C)(C)C(=O)O)c2csc(N)n2)C(=O)N1C(=O)NS(=O)(=O)n1nc(-c2cc(=O)c(O)c[nH]2)n(C[C@@H](O)CO)c1=O

Each compound was assayed on Pseudomonas aeruginosa (assay: Antimicrobial activity against Pseudomonas aeruginosa 1515-08).
Format: functional

MIC90 | Compound
0.125 µg/mL (≈ 0.172 µM) | C[C@H]1[C@H](NC(=O)/C(=N\OC(C)(C)C(=O)O)c2csc(N)n2)C(=O)N1C(=O)NS(=O)(=O)n1nc(-c2cc(=O)c(O)c[nH]2)n(C[C@@H](O)CO)c1=O

What follows are compounds tested on Pseudomonas aeruginosa (assay: Antimicrobial activity against Pseudomonas aeruginosa PA-4624).
Format: functional

MIC90 | Compound
0.25 µg/mL (≈ 0.343 µM) | C[C@H]1[C@H](NC(=O)/C(=N\OC(C)(C)C(=O)O)c2csc(N)n2)C(=O)N1C(=O)NS(=O)(=O)n1nc(-c2cc(=O)c(O)c[nH]2)n(C[C@@H](O)CO)c1=O

These compounds were tested on Pseudomonas aeruginosa (assay: Antimicrobial activity against Pseudomonas aeruginosa 1569-05).
Format: functional

MIC90 | Compound
0.25 µg/mL (≈ 0.343 µM) | C[C@H]1[C@H](NC(=O)/C(=N\OC(C)(C)C(=O)O)c2csc(N)n2)C(=O)N1C(=O)NS(=O)(=O)n1nc(-c2cc(=O)c(O)c[nH]2)n(C[C@@H](O)CO)c1=O

The compounds below were run on Pseudomonas aeruginosa (assay: Antimicrobial activity against Pseudomonas aeruginosa 1953-00).
Format: functional

MIC90 | Compound
0.25 µg/mL (≈ 0.343 µM) | C[C@H]1[C@H](NC(=O)/C(=N\OC(C)(C)C(=O)O)c2csc(N)n2)C(=O)N1C(=O)NS(=O)(=O)n1nc(-c2cc(=O)c(O)c[nH]2)n(C[C@@H](O)CO)c1=O

What follows are compounds tested on Pseudomonas aeruginosa (assay: Antimicrobial activity against Pseudomonas aeruginosa 1509-08).
Format: functional

MIC90 | Compound
1 µg/mL (≈ 1.37 µM) | C[C@H]1[C@H](NC(=O)/C(=N\OC(C)(C)C(=O)O)c2csc(N)n2)C(=O)N1C(=O)NS(=O)(=O)n1nc(-c2cc(=O)c(O)c[nH]2)n(C[C@@H](O)CO)c1=O

These compounds were tested on Pseudomonas aeruginosa (assay: Antimicrobial activity against Pseudomonas aeruginosa 1614-09).
Format: functional

MIC90 | Compound
0.125 µg/mL (≈ 0.172 µM) | C[C@H]1[C@H](NC(=O)/C(=N\OC(C)(C)C(=O)O)c2csc(N)n2)C(=O)N1C(=O)NS(=O)(=O)n1nc(-c2cc(=O)c(O)c[nH]2)n(C[C@@H](O)CO)c1=O

What follows are compounds tested on Pseudomonas aeruginosa (assay: Antimicrobial activity against Pseudomonas aeruginosa 1955-00).
Format: functional

MIC90 | Compound
0.06 µg/mL (≈ 0.0823 µM) | C[C@H]1[C@H](NC(=O)/C(=N\OC(C)(C)C(=O)O)c2csc(N)n2)C(=O)N1C(=O)NS(=O)(=O)n1nc(-c2cc(=O)c(O)c[nH]2)n(C[C@@H](O)CO)c1=O

Each compound was assayed on Pseudomonas aeruginosa (assay: Antimicrobial activity against Pseudomonas aeruginosa 1760-00).
Format: functional

MIC90 | Compound
0.25 µg/mL (≈ 0.343 µM) | C[C@H]1[C@H](NC(=O)/C(=N\OC(C)(C)C(=O)O)c2csc(N)n2)C(=O)N1C(=O)NS(=O)(=O)n1nc(-c2cc(=O)c(O)c[nH]2)n(C[C@@H](O)CO)c1=O

The compounds below were run on Pseudomonas aeruginosa (assay: Antimicrobial activity against Pseudomonas aeruginosa PA-4990).
Format: functional

MIC90 | Compound
0.25 µg/mL (≈ 0.343 µM) | C[C@H]1[C@H](NC(=O)/C(=N\OC(C)(C)C(=O)O)c2csc(N)n2)C(=O)N1C(=O)NS(=O)(=O)n1nc(-c2cc(=O)c(O)c[nH]2)n(C[C@@H](O)CO)c1=O

Each compound was assayed on Pseudomonas aeruginosa (assay: Antimicrobial activity against Pseudomonas aeruginosa 1527-08).
Format: functional

MIC90 | Compound
0.125 µg/mL (≈ 0.172 µM) | C[C@H]1[C@H](NC(=O)/C(=N\OC(C)(C)C(=O)O)c2csc(N)n2)C(=O)N1C(=O)NS(=O)(=O)n1nc(-c2cc(=O)c(O)c[nH]2)n(C[C@@H](O)CO)c1=O

The compounds below were run on Pseudomonas aeruginosa (assay: Antimicrobial activity against Pseudomonas aeruginosa 1526-08).
Format: functional

MIC90 | Compound
0.125 µg/mL (≈ 0.172 µM) | C[C@H]1[C@H](NC(=O)/C(=N\OC(C)(C)C(=O)O)c2csc(N)n2)C(=O)N1C(=O)NS(=O)(=O)n1nc(-c2cc(=O)c(O)c[nH]2)n(C[C@@H](O)CO)c1=O

The compounds below were run on Pseudomonas aeruginosa (assay: Antimicrobial activity against Pseudomonas aeruginosa 1521-08).
Format: functional

MIC90 | Compound
0.5 µg/mL (≈ 0.686 µM) | C[C@H]1[C@H](NC(=O)/C(=N\OC(C)(C)C(=O)O)c2csc(N)n2)C(=O)N1C(=O)NS(=O)(=O)n1nc(-c2cc(=O)c(O)c[nH]2)n(C[C@@H](O)CO)c1=O

— ChEMBL document CHEMBL3217532, “New analyses of MIC90 data to aid antibacterial drug discovery” (2011)
